Data on three compounds can be found in BindingDB's records for patent US12303509 (Pfizer, 2025).

The structures appear in SMILES notation.

In the assay the target is Serine/threonine-protein kinase B-raf [V600E] (Homo sapiens, UniProt P15056, V600E). The assay is described as follows: BRAF V600E Enzyme Assay. The method, then:
A competitive displacement assay was configured for B-Raf that monitors the amount of a fluorescently-tagged “tracer” bound to B-Raf via TR-FRET from an anti-tag Eu-labeled antibody also bound to B-Raf. For full-length FLAG-tagged B-Raf(V600E), the assay mixtures consisted of 25 mM K+HEPES, pH 7.4, 10 mM MgCl2, 0.01% Triton X-100, 1 mM DTT, 2% DMSO (from compound), 50 nM Tracer 1710 (ThermoFisher, PR9176A), 0.5 nM Eu anti-FLAG (M2)-cryptate Ab (Cisbio, 61FG2KLB) and 5 nM full-length, N-terminally FLAG-tagged B-Raf(V600E) (Origene Technologies, TP700031. Compounds were typically diluted in DMSO across an 11-point dosing range created using a 3-fold serial dilution protocol at a top dose of 10 μM. The assay was run in 384-well, polystyrene, low-volume, non-treated, white microtiter plates (Costar 4512) in a final volume of 12 μL. Low control wells included 1 μM of a potent B-Raf inhibitor as a control. The assays were incubated at ambient temperature (typically 22° C.) for 60 min and then read on a PerkinElmer EnVision microplate reader using standard TRF settings (λEx=320 nm, λEm=615 & 665 nm).

Serine/threonine-protein kinase B-raf [V600E], sequence (P15056 2-766 V600E limits assumed): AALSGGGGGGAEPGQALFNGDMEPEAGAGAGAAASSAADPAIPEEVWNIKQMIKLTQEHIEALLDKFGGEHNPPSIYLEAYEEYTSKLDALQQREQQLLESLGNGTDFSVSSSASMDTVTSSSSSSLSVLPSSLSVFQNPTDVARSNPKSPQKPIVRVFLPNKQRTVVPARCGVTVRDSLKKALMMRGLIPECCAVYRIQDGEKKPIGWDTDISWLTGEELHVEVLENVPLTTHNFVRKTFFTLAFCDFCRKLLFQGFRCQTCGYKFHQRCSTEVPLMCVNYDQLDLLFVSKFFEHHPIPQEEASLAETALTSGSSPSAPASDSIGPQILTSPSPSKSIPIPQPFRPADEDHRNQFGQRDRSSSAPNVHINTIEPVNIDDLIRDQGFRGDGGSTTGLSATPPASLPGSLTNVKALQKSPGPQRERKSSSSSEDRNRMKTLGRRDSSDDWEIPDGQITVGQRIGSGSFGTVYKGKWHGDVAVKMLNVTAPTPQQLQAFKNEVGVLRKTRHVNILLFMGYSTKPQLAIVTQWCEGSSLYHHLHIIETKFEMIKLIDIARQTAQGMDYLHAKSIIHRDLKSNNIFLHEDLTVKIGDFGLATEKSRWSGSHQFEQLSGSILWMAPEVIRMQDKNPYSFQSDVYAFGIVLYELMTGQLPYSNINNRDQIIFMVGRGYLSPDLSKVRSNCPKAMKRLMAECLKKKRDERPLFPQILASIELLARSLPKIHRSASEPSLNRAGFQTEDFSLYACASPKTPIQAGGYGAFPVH

`Cn1cnc2ccc(Nc3c(F)ccc(NS(=O)(=O)N4CC(OC(F)F)C4)c3Cl)c(Cl)c2c1=O` [US12303509, Example 143] displayed a concentration for half-maximal inhibition (IC50) of 8 nM.

`Cc1c(Nc2c(F)ccc(NS(=O)(=O)N3CC(C)(F)C3)c2Cl)ccc2ncn(C)c(=O)c12` [US12303509, Example 155] gave a 50% inhibitory concentration (IC50) of 7 nM.

As to `Cc1c(Nc2c(F)ccc(NS(=O)(=O)N3CC4(CCC4)C3)c2Cl)ccc2ncn(C)c(=O)c12` [US12303509, Example 157], half-maximal inhibition (IC50) required 29 nM. This IC50 lies about 4.1-fold higher than the previous one.
